Test results published in patent US20230286973A1, “PROTEIN SECRETION INHIBITORS” (KEZAR LIFE SCIENCES, priority 2020, published 2023).

Key:
[1] = Liver Microsome Stability Assay (mouse); details: mouse liver microsomes, with NADPH, 1.0 uM compound
Protocol: (§1) Stability of a compound was assessed in the presence of liver microsomes from various sources—mouse, rat, monkey and human liver microsomes. 1.0 uM compound, 0.4% DMSO in 0.1 M Potassium Phosphate with 1.0 mg/mL liver microsomes, were incubated at 37° C. with or without 1 mM NADPH. The samples were quenched at 0, and 30 minutes.

[2] = tested on: HER3-ss+4aa/Gaussia Luciferase; assay: Dox-Induced Her3-ss-Gluc Assay; assay type: cell-based; details: 24 hr Dox induction; 293FRT/TO cells; mean; read-out: 24 hr Dox Inducible Her3(ss + 4)Gluc 293FRT/TO: Mean IC50
Method in brief: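 Cells were seeded a day ahead, then given compound diluted in DMSO/media with doxycycline to induce expression of the HER3 signal sequence (+4 aa)–Gaussia luciferase fusion. Incubation was at 37° C., 5% CO2, in a stable Flp-In 293 T-REx line.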

[3] = tested on: multiple myeloma cell line U266B1; assay: U266 Cell Viability Assay; assay type: cell-based, human; details: Homo sapiens, U-266, 48 h, U266B1 cells, Celltiter-Glo
Method in brief: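 Steps: culture in RPMI 1640 plus 10% FBS and 2 mM glutamine; plate and add compound dilutions; incubate 48 hours at 37° C., 5% CO2; add CellTiter-Glo and quantify luciferase signal.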

[4] = Liver Microsome Stability Assay (human); details: human liver microsomes, with NADPH, 1.0 uM compound
Protocol: as §1

[5] = Liver Microsome Stability Assay (rat); details: rat liver microsomes, with NADPH, 1.0 uM compound
Protocol: as §1

[6] = tested on: IL-2-FL/Gaussia Luciferase; assay: Dox Induced IL2-FL-Gluc Assay; assay type: cell-based; details: for IC50: 24 hr Dox induction, 293FRT/TO cells, mean, read-out: 24 hr Dox Inducible IL2FLGluc 293FRT/TO: Mean IC50; for 24 hr Dox Inducible IL2FLGluc 293FRT/TO: IL2/PD1: ratio of IL2FLGluc IC50 to PD1ssGluc IC50, '<=>' given where both are I.A.
Method in brief: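 Cells are plated one day ahead, then receive compound dilutions in DMSO/media with doxycycline and incubate at 37° C, 5% CO2. They are Flp-In 293 T-REx cells expressing a full-length IL-2 (amino acids 1-153)–Gaussia luciferase fusion under T-REx control.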

[7] = Liver Microsome Stability Assay (monkey); details: monkey liver microsomes, with NADPH, 1.0 uM compound
Protocol: as §1

[8] = tested on: PD1-ss+10aa/Gaussia Luciferase; assay: Dox-Induced PD1-ss-Gluc Assay; assay type: cell-based; details: 24 hr Dox induction; 293FRT/TO cells; mean; read-out: 24 hr Dox Inducible PD1ssGluc 293FRT/TO: Mean IC50
Method in brief: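 The cell line was made by transfecting Flp-In 293 T-REx cells with a PD1 signal sequence+10aa–Gaussia luciferase fusion under T-REx control and selecting with hygromycin and blasticidin. Cells were seeded, and next day compound plus doxycycline was added at 37 °C, 5% CO2.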

[9] = tested on: multiple myeloma cell line NCI-H929; assay: H929 Cell Viability Assay; assay type: cell-based, human; details: Homo sapiens, NCI-H929, 48 h, NCI-H929 cells, Celltiter-Glo
Method in brief: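 Luminescent ATP detection (CellTiter-Glo) after 48 hours of compound exposure measures viability. Cells were plated in RPMI 1640 containing 10% fetal bovine serum and kept at 37° C under 5% CO2.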

[10] = tested on: TNFα-FL/Gaussia Luciferase; assay: Dox Induced TNFα-FL-Gluc Assay; assay type: cell-based; details: for IC50: 24 hr Dox induction, 293FRT/TO cells, mean, read-out: 24 hr Dox Inducible TNFaFLGluc 293FRT/TO: Mean IC50; for 24 hr Dox Inducible TNFaFLGluc 293FRT/TO: TNF/PD1: ratio of TNFaFLGluc IC50 to PD1ssGluc IC50, '<=>' given where both are I.A.
Method in brief: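 Stereoisomer mixtures were tested where stereochemistry is not drawn. Induction used doxycycline added together with compound dilutions in DMSO/media to Flp-In 293 T-REx cells carrying a T-REx-regulated TNFα (aa 1-233)-Gaussia luciferase construct, then incubated at 37 °C, 5% CO2.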

Structure (SMILES) | Liver Microsome Stability (Multiple Species): Mouse - % Remaining after 30 min w/NADPH [1] [%] | IC50 [2] [nM] | EC50 [3] [µM] | Liver Microsome Stability (Multiple Species): Human - % Remaining after 30 min w/NADPH [4] [%] | Liver Microsome Stability (Multiple Species): Rat - % Remaining after 30 min w/NADPH [5] [%] | IC50 [6] [nM] | 24 hr Dox Inducible IL2FLGluc 293FRT/TO: IL2/PD1 [6] | Liver Microsome Stability (Multiple Species): Monkey - % Remaining after 30 min w/NADPH [7] [%] | IC50 [8] [nM] | EC50 [9] [µM] | IC50 [10] [nM] | 24 hr Dox Inducible TNFaFLGluc 293FRT/TO: TNF/PD1 [10]
Cc1ccc(S(=O)(=O)N(C(=O)c2cccn2Cc2ccncc2)c2nc([C@H]3CCCN3S(=O)(=O)c3ccc(C)cc3)cs2)cc1 [Compound E52, (R)-1-(pyridin-4-ylmethyl)-N-tosyl-N-(4-(1-tosylpyrrolidin-2-yl)thiazol-2-yl)-1H-pyrrole-2-carboxamide] | 1.28 | > 25000 | > 25 | 0.44 | 9.09 | > 25000 | 1 | 0.32 | > 25000 | > 25 | > 25000 | 
O=C(Nc1ccccn1)c1csc(NC(=O)c2cccn2Cc2ccncc2)n1 [Compound E53] | 5 | > 25000 | > 25 | 7.99 | 5.58 | > 25000 | 1 | 2.89 | > 25000 | > 25 | > 25000 | 
N#Cc1cnccc1Cn1cccc1C(=O)Nc1nc([C@H]2CCCN2c2ccccc2)cs1 [Compound E59, (R)-1-((3-cyanopyridin-4-yl)methyl)-N-(4-(1-phenylpyrrolidin-2-yl)thiazol-2-yl)-1H-pyrrole-2-carboxamide] | 0.39 | 581 | > 25 | 0.22 | 0.83 | 932 | 2.3 | 0.56 | 408 | 15.2 | 12600 | 30.9
N#Cc1cc(Cn2cccc2C(=O)Nc2nc([C@H]3CCCN3c3ccccc3)cs2)ccn1 [Compound E60, (R)-1-((2-cyanopyridin-4-yl)methyl)-N-(4-(1-phenylpyrrolidin-2-yl)thiazol-2-yl)-1H-pyrrole-2-carboxamide] | 6.59 | 1280 | > 25 | 1.3 | 2.04 | 1690 | 2.1 | 0.19 | 802 | 23.6 | > 25000 | >31.2
Cc1ccc(N2CCC[C@@H]2c2csc(NC(=O)c3cccn3Cc3ccncc3)n2)nc1 [Compound E62, (R)-N-(4-(1-(5-methylpyridin-2-yl)pyrrolidin-2-yl)thiazol-2-yl)-1-(pyridin-4-ylmethyl)-1H-pyrrole-2-carboxamide] | 1.51 | 8.52 | > 25 | 0.69 | 15.4 | 9.89 | 3.4 | 0.19 | 2.94 | 0.126 | 43 | 14.6
Cc1ccnc(N2CCC[C@@H]2c2csc(NC(=O)c3cccn3Cc3ccncc3)n2)c1 [Compound E63, (R)-N-(4-(1-(4-methylpyridin-2-yl)pyrrolidin-2-yl)thiazol-2-yl)-1-(pyridin-4-ylmethyl)-1H-pyrrole-2-carboxamide] | 0.72 | 97 | > 25 | 0.02 | 0.23 | 95.2 | 1.5 | 0.32 | 64 | 2.97 | 704 | 11
Cc1cccnc1N1CCC[C@@H]1c1csc(NC(=O)c2cccn2Cc2ccncc2)n1 [Compound E64, (R)-N-(4-(1-(3-methylpyridin-2-yl)pyrrolidin-2-yl)thiazol-2-yl)-1-(pyridin-4-ylmethyl)-1H-pyrrole-2-carboxamide] | 0.21 | 106 | > 25 | 6.7 | 0.16 | 70.5 | 1 | 7.11 | 70.3 | 3.1 | 377 | 5.37
CCc1ccc(N2CCC[C@@H]2c2csc(NC(=O)c3cccn3Cc3ccncc3)n2)nc1 [Compound E65, (R)-N-(4-(1-(5-ethylpyridin-2-yl)pyrrolidin-2-yl)thiazol-2-yl)-1-(pyridin-4-ylmethyl)-1H-pyrrole-2-carboxamide] | 0.33 | 14.4 | > 25 | 0.33 | 2.87 | 16.4 | 3 | 0.13 | 5.5 | 0.142 | 71 | 12.9
